From ChEMBL document CHEMBL1152876, “Synthesis and evaluation of novel phosphoramidate prodrugs of 2'-methyl cytidine as inhibitors of hepatitis C virus NS5B polymerase” (Bioorg Med Chem Lett, 2009)

What was measured:
Hepatitis C virus = test: Antiviral activity against HCV infected in human hepatoma cells by replicon assay; type: functional, Hepacivirus hominis
Rattus norvegicus = test: Metabolic stability in rat liver assessed as nucleoside triphosphate formation at 30 umol/kg, po after 6 hrs; settings: in vivo
Hepatocyte [1] = test: Metabolic stability in human hepatocyte assessed as nucleoside triphosphate at 10 uM level after 2 hrs; settings: hepatocytes
Hepatocyte [2] = test: Metabolic stability in rat hepatocyte assessed as nucleoside triphosphate at 10 uM level after 2 hrs; settings: hepatocytes

Structure (SMILES) | Activity (Hepatitis C virus) [nM] | Stability (Rattus norvegicus) [nmol/g] | Stability (Hepatocyte [1]) [µM] | Stability (Hepatocyte [2]) [µM]
C[C@@]1(O)[C@H](O)[C@@H](COP(=O)(NCCOC(=O)C2CCCCCC2)Oc2ccccc2)O[C@H]1n1ccc(N)nc1=O (some centres not stated) | 1160 |  |  | 
CC(C)(C)C(=O)OCCNP(=O)(OC[C@H]1O[C@@H](n2ccc(N)nc2=O)[C@](C)(O)[C@@H]1O)Oc1ccccc1 (some centres not stated) | 226 |  |  | 
C[C@@]1(O)[C@H](O)[C@@H](COP(=O)(NCCOC(=O)c2ccccc2)Oc2ccccc2)O[C@H]1n1ccc(N)nc1=O (some centres not stated) | 1960 | 0.3 |  | 
CC(C)C(=O)OCC(Cc1ccccc1)NP(=O)(OC[C@H]1O[C@@H](n2ccc(N)nc2=O)[C@](C)(O)[C@@H]1O)Oc1ccccc1 (some centres not stated) | 921 |  |  | 
CC(C)C(=O)O[C@H]1CCN(P(=O)(OC[C@H]2O[C@@H](n3ccc(N)nc3=O)[C@](C)(O)[C@@H]2O)Oc2ccccc2)C1 (some centres not stated) | <20000 |  |  | 
CC(C)CC(COC(=O)C(C)(C)C)NP(=O)(OC[C@H]1O[C@@H](n2ccc(N)nc2=O)[C@](C)(O)[C@@H]1O)Oc1ccccc1 (some centres not stated) | 1840 |  |  | 
CC(CNP(=O)(OC[C@H]1O[C@@H](n2ccc(N)nc2=O)[C@](C)(O)[C@@H]1O)Oc1ccccc1)OC(=O)C(C)C (some centres not stated) | 585 |  |  | 
CCC(CC)C(=O)OCCNP(=O)(OC[C@H]1O[C@@H](n2ccc(N)nc2=O)[C@](C)(O)[C@@H]1O)Oc1ccccc1 (stereo in doubt; 9) [DIASTEREOMERIC MIX] | 2830 |  |  | 
CCC(CC)C(=O)OCCNP(=O)(OC[C@H]1O[C@@H](n2ccc(N)nc2=O)[C@](C)(O)[C@@H]1O)Oc1ccccc1 (stereo in doubt; 9b) [DIASTEREOMERIC MIX] | 625 |  |  | 
CCCC(CCC)C(=O)OCCNP(=O)(OC[C@H]1O[C@@H](n2ccc(N)nc2=O)[C@](C)(O)[C@@H]1O)Oc1ccccc1 (stereo in doubt; 10a) [2-((((2R,3R,4R,5R)-5-(4-AMINO-2-OXOPYRIMIDIN-1(2H)-YL)-3,4-DIHYDROXY-4-METHYLTETRAHYDROFURAN-2-YL)METHOXY)(PHENOXY)PHOSPHORYLAMINO)ETHYL 2-PROPYLPENTANOATE (DIASTEREOMERIC  MIX)] | 450 |  |  | 
CCCC(CCC)C(=O)OCCNP(=O)(OC[C@H]1O[C@@H](n2ccc(N)nc2=O)[C@](C)(O)[C@@H]1O)Oc1ccccc1 (stereo in doubt; 10b) [2-((((2R,3R,4R,5R)-5-(4-AMINO-2-OXOPYRIMIDIN-1(2H)-YL)-3,4-DIHYDROXY-4-METHYLTETRAHYDROFURAN-2-YL)METHOXY)(PHENOXY)PHOSPHORYLAMINO)ETHYL 2-PROPYLPENTANOATE (DIASTEREOMERIC  MIX)] | 240 | 0.2 |  | 
CC(C)[C@H](N)C(=O)O[C@@H]1[C@@H](CO)O[C@@H](n2ccc(N)nc2=O)[C@]1(C)O [VALOPICITABINE] | 7600 | 0.2 | 17 | < 14
